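1) Cells in 96-well plates. 2) Compound, 48 h, 5 concentrations. 3) Linear interpolation between surrounding doses. 4) Unreached endpoint = highest concentration. TGI is the concentration that stops growth completely.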
Columns and labels:
Assay in all cases: growth of human tumour cells (NCI), 48 h
[1] = test system: 786-0 renal
[2] = test system: A498 renal
[3] = test system: A549 NSCLC
[4] = test system: ACHN renal
[5] = test system: CCRF-CEM leukemia
[6] = test system: COLO 205 colon
[7] = test system: DU-145 prostate
[8] = test system: EKVX NSCLC
[9] = test system: HCC-2998 colon
[10] = test system: HCT-116 colon
[11] = test system: HCT-15 colon
[12] = test system: HL-60(TB) leukemia
[13] = test system: HOP-62 NSCLC
[14] = test system: HS 578T breast
[15] = test system: HT29 colon
[16] = test system: IGROV1 ovarian
[17] = test system: K-562 leukemia
[18] = test system: KM12 colon
[19] = test system: LOX IMVI melanoma
[20] = test system: M14 melanoma
[21] = test system: MDA-MB-231 breast
[22] = test system: MDA-MB-435
[23] = test system: MDA-N
[24] = test system: MOLT-4 leukemia
[25] = test system: NCI-H226 lung
[26] = test system: NCI-H23 lung
[27] = test system: NCI-H460 lung
[28] = test system: NCI-H522 lung
[29] = test system: NCI/ADR-RES ovarian
[30] = test system: OVCAR-3 ovarian
[31] = test system: OVCAR-4 ovarian
[32] = test system: OVCAR-5 ovarian
[33] = test system: OVCAR-8 ovarian
[34] = test system: PC-3 prostate
[35] = test system: RPMI-8226 leukemia
[36] = test system: RXF 393 renal
[37] = test system: SF-268 CNS
[38] = test system: SF-295 CNS
[39] = test system: SF-539 CNS
[40] = test system: SK-MEL-2 melanoma
[41] = test system: SK-MEL-28 melanoma
[42] = test system: SK-MEL-5 melanoma
[43] = test system: SK-OV-3 ovarian
[44] = test system: SN12C renal
[45] = test system: SNB-19 CNS
[46] = test system: SNB-75 CNS
[47] = test system: SW-620 colon
[48] = test system: T-47D breast
[49] = test system: TK-10 renal
[50] = test system: U251 CNS
[51] = test system: UACC-257 melanoma
[52] = test system: UACC-62 melanoma
[53] = test system: UO-31 renal
[54] = test system: BT-549 breast
[55] = test system: CAKI-1 renal
[56] = test system: HOP-92 NSCLC
[57] = test system: MALME-3M melanoma
[58] = test system: MCF7 breast
[59] = test system: SR leukemia

Measured: TGI

CN1N=C(c2ccncc2)OC1c1cccc(C(F)(F)F)c1 (centres undefined)
> 100 µM: [1] | [2] | [3] | [4] | [5] | [6] | [7] | [8] | [9] | [10] | [11] | [12] | [13] | [14] | [15] | [16] | [17] | [18] | [19] | [20] | [21] | [22] | [23] | [24] | [25] | [26] | [27] | [28] | [29] | [30] | [31] | [32] | [33] | [34] | [35] | [36] | [37] | [38] | [40] | [41] | [42] | [43] | [44] | [45] | [47] | [48] | [49] | [50] | [51] | [52] | [53]
87.3 µM: [46]
65.8 µM: [39]

CS(=O)(=O)c1nc(-c2cc3c(c(S(C)(=O)=O)n2)CCC3)cc2c1CCCC2
34.8 µM: [16]
78.6 µM: [13]
40.5 µM: [36]
14.1 µM: [14]
57.9 µM: [33]
77.7 µM: [43]
24.4 µM: [37]
59.3 µM: [40]
> 100 µM: [1] | [3] | [4] | [5] | [6] | [7] | [8] | [9] | [10] | [11] | [12] | [15] | [17] | [18] | [20] | [21] | [22] | [23] | [24] | [25] | [26] | [29] | [30] | [31] | [32] | [34] | [35] | [38] | [39] | [41] | [42] | [44] | [45] | [47] | [49] | [50] | [51] | [53]
23.4 µM: [46]
49.8 µM: [19]
45.9 µM: [28]
38 µM: [55]
83.8 µM: [54]
29.6 µM: [52]

CN(C(=O)c1ccc2c(c1)sc1c(=O)n(C)c3ccccc3c12)c1ccccc1
> 100 µM: [1] | [3] | [4] | [54] | [55] | [5] | [6] | [7] | [8] | [9] | [10] | [11] | [12] | [56] | [15] | [16] | [17] | [18] | [19] | [20] | [57] | [58] | [21] | [22] | [23] | [24] | [25] | [26] | [27] | [28] | [29] | [30] | [31] | [32] | [33] | [34] | [36] | [38] | [39] | [40] | [41] | [42] | [43] | [44] | [45] | [46] | [59] | [47] | [48] | [49] | [50] | [51] | [52] | [53]

— PubChem BioAssay (NCI)
